Values of other authors as cited in patent US10987324B2, “Methods and compositions for the treatment of seizure-related disorders” (Adamas Pharmaceuticals, Inc., priority 2015, dated 2021).
Read-outs that look alike come from different tables or passages of the source.

Assays:
[1] = cited from earlier work
[2] = cited from earlier work; remark: listed apart in the source

## C=CC(N)CCC(=O)O (racemic) [vigabatrin, (RS)-4-aminohex-5-enoic acid]
[1]; at steady state
  Cmax: 61000 ng/mL
  T1/2: 7.5 h
[1]; human
  elimination / plasma / pharmacokinetic half-life: about 10 hours
[1]; oral dosing, human
  Tmax: approximately 1 hours

## NC(=O)N1c2ccccc2CC(O)c2ccccc21 (stereo not shown) [MDH, 10-monohydroxy metabolite]
[1]; human
  elimination / plasma / pharmacokinetic half-life: 9 h

## CC(=O)N[C@H](CO)C(=O)NCc1ccccc1 [O-desmethyl metabolite]
[1]; CYP2C19 poor metabolizers compared to extensive metabolizers
  reduction of concentrations and amount excreted into urine: about 70%
[1]; human
  elimination / plasma / pharmacokinetic half-life: 15 to 23 h
[1]; oral dosing, human
  Tmax: 0.5 to 12 h

## CCCC(CCC)C(=O)O [divalproex sodium]
[1]; human
  elimination / plasma / pharmacokinetic half-life: about 15 hours

## CC[C@@H](C(N)=O)N1CCCC1=O [levetiracetam, (S)-alpha-ethyl-2-oxo-pyrrolidine acetamide]
[2]; 4000 mg daily, untitrated study
  patients reporting somnolence: Approximately 45%
[2]; compared to 8% with placebo
  patients with somnolence: 14.8%
[1]; fasted subjects
  Tmax: approximately one
[1]; human
  elimination / plasma / pharmacokinetic half-life: about 7 hours
[1]; human, listed as Levetiracetam
  elimination / plasma / pharmacokinetic half-life: 6 to 8 h
[1]; in vivo
  AUC0-24: 300 to 350 µg·h/mL
[1]; mostly unmetabolized form
  renal excretion rate: 0.6 mL/min/kg

## NC(=O)N1c2ccccc2CC(=O)c2ccccc21 [oxcarbazepine, 10,11-dihydro-10-oxo-5H-dibenz(b,f)azepine-5-carboxamide]
[1]; 600 mg IR BID
  AUC0-24: 16.8 µg·h/mL
  Cmax: 2720 ng/mL
[1]; human
  elimination / plasma / pharmacokinetic half-life: about 20 hours
[1]; human, listed as Oxcarbazepine
  elimination / plasma / pharmacokinetic half-life: approximately 2 hours
[1]; oral dosing, human
  Tmax: approximately 3 hours

## CCCC(CCC)C(=O)O [valproic acid, 2-propylpentanoic acid]
[1]; human
  elimination / plasma / pharmacokinetic half-life: 9 to 16 h
